Values after ≈ are worked out from the molar mass of the structure shown. Read-outs that look alike come from different tables or passages of the source.
Experiments:
[1] = tested on: Aspergillus carbonarius ATCC 8740; experiment: Aspergillus panel MIC; format: cell-based; settings: Table 8
Procedure: (§1) Starter cultures of fungal strains to be tested were grown in 3 mL of RPMI 2% glucose media incubated at 37° C. with shaking at 200 rpm overnight. The culture media used was 900 mL H2O; 10.4 g RPMI 1640 (with L-glutamine and a pH indicator but without bicarbonate); 34.5 g MOPS and 18 g glucose. The pH of the media was adjusted to 7.0 with 1 M sodium hydroxide.
(§2) Solutions of the compound to be tested were prepared by dissolving the compound in DMSO and subsequently into media to the desired concentrations. 200 μL of compound solution was then added to the wells of the 96-well plate using a serial dilution method row-by row of the plate to give a compound concentration gradient across the plate of from 128 μg/mL to 0.25 μg/mL. The last two rows of each plate were control rows containing the culture media alone and the media plus fungi.
(§3) The fungi starter cultures were diluted 1:10 in water in cuvettes. This was then further diluted to an optical density (OD600) of 0.01 in media. 100 μL of the fungi was added to each well giving a starting concentration of fungus of 0.5-5×10^5/mL. One species of fungus was used on each plate. The plates were then held at 37° C. for 24 hours.
(§4) A plate reader was used to measure growth in each well at OD530 nm and the MIC was determined for each test compound. The MIC is defined as the lowest concentration giving rise to inhibition of ≥50% of that of the drug-free control well containing the fungus and media.
(§5) The compound of Example 2 (which corresponds to compound number 2) was tested against a panel of Aspergillus strains using a method analogous to that described above for the Candida Panel.

[2] = tested on: Aspergillus fulavus ATCC 204304; experiment: Aspergillus panel MIC; format: cell-based; settings: Table 8
Procedure: as §1, §2, §3, §4, §5

[3] = tested on: Aspergillus fumigatus ATCC 1028; experiment: Aspergillus panel MIC; format: cell-based; settings: Table 8
Procedure: as §1, §2, §3, §4, §5

[4] = tested on: Aspergillus fumigatus ATCC 10894; experiment: Aspergillus panel MIC; format: cell-based; settings: Table 8
Procedure: as §1, §2, §3, §4, §5

[5] = tested on: Aspergillus fumigatus ATCC 13073; experiment: Aspergillus panel MIC; format: cell-based; settings: Table 8
Procedure: as §1, §2, §3, §4, §5

[6] = tested on: Aspergillus fumigatus ATCC 16424; experiment: Aspergillus panel MIC; format: cell-based; settings: Table 8
Procedure: as §1, §2, §3, §4, §5

[7] = tested on: Aspergillus fumigatus ATCC 204305; experiment: Aspergillus panel MIC; format: cell-based; settings: Table 8
Procedure: as §1, §2, §3, §4, §5

C. albicans NCPF3281 = experiment: Candida panel MIC, serial dilution in 96-well plates; format: cell-based, Candida albicans; settings: NCPF3281, read-out: MIC C. albicans NCPF3281
How it was run: (§6)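 Broth microdilution in RPMI 1640/MOPS/2% glucose, pH 7.0, compound serially diluted from 128 to 0.25 μg/mL. Inoculum 0.5-5×10^5/mL from overnight 37 °C cultures; plates incubated 24 h at 37 °C. Growth read at OD530; MIC is lowest concentration giving ≥50% inhibition versus drug-free growth control.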

C. glabrata NCPF8018 = experiment: as above; format: cell-based, Candida glabrata; settings: Nakaseomyces glabratus
How it was run: (§7)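 MIC taken as lowest concentration inhibiting growth ≥50% relative to drug-free control, from OD530 after 24 hours at 37° C. Fungi at 0.5-5×10^5/mL were exposed to serially diluted compound in RPMI 1640/MOPS/2% glucose medium adjusted to pH 7.0.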

C. krusei NCPF3876 = experiment: microbe, parasite or virus in culture; format: cell-based, Candida krusei; settings: Pichia kudriavzevii
How it was run: as §7

C. parapsilosis NCPF3209 = experiment: microbe, parasite or virus in culture; format: cell-based, Candida parapsilosis; settings: Lodderomyces parapsilosis
How it was run: as §7

Candida auris TDG2211 = experiment: microbe, parasite or virus in culture; format: cell-based; settings: Candidozyma auris, TDG2211; Table 4, extended panel; 24 hours, ≥50% inhibition; read-out: MIC Candida auris TDG2211
How it was run: (§8)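 MIC is the lowest concentration inhibiting growth by ≥50% relative to the drug-free control, read at OD530 nm after 24 hours at 37° C. Fungi were seeded at 0.5-5×10^5/mL in MOPS-buffered RPMI 1640 with 2% glucose, pH 7.0; compounds came from DMSO solutions diluted in media.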

Candida auris TDG2506 = experiment: microbe, parasite or virus in culture; format: cell-based; settings: Candidozyma auris, TDG2506; Table 4, extended panel; 24 hours, ≥50% inhibition; read-out: MIC Candida auris TDG2506
How it was run: as §8

C. auris TDG1912 = experiment: Candida panel MIC, serial dilution in 96-well plates; format: cell-based; settings: Candidozyma auris, TDG1912; Table 4; 24 hours, ≥50% inhibition; read-out: MIC C. auris TDG1912
How it was run: as §6

C. tropicalis NCPF8760 = experiment: as above; format: cell-based
How it was run: as §6

Candida auris TDG1102 = experiment: as above; format: cell-based; settings: Candidozyma auris, read-out: MIC Candida auris TDG1102
How it was run: as §6

Candida auris TDG2512 = experiment: as above; format: cell-based; settings: Candidozyma auris, TDG2512; Table 4, extended panel; 24 hours, ≥50% inhibition; read-out: MIC Candida auris TDG2512
How it was run: as §6

C. albicans 3363 = experiment: Candida albicans panel MIC; format: cell-based; settings: Table 6, Candida albicans panel
Procedure: (§9) The minimum inhibitory concentration of test compounds were determined in a panel of Candida species (see Table 4 below), using the a serial dilution method in 96-well plates using the following protocol.
as §1, §2, §3, §4
(§10) The compounds shown in Table 6 were tested against a further panel of Candida albicans.

C. albicans 3645 = experiment: Candida albicans panel MIC; format: cell-based; settings: Table 6, Candida albicans panel
Procedure: as §9, §1, §2, §3, §4, §10

C. albicans 3880 = experiment: Candida albicans panel MIC; format: cell-based; settings: Table 6, Candida albicans panel
Procedure: as §9, §1, §2, §3, §4, §10

C. albicans 3881 = experiment: Candida albicans panel MIC; format: cell-based; settings: Table 6, Candida albicans panel
Procedure: as §9, §1, §2, §3, §4, §10

C. albicans 3882 = experiment: Candida albicans panel MIC; format: cell-based; settings: Table 6, Candida albicans panel
Procedure: as §9, §1, §2, §3, §4, §10

C. albicans 3990 = experiment: Candida albicans panel MIC; format: cell-based; settings: Table 6, Candida albicans panel
Procedure: as §9, §1, §2, §3, §4, §10

C. albicans 8112 = experiment: Candida albicans panel MIC; format: cell-based; settings: Table 6, Candida albicans panel
Procedure: as §9, §1, §2, §3, §4, §10

panel of Candida species = experiment: Candida panel MIC, statements on the whole panel; format: cell-based; settings: in words
Procedure: as §9, §1, §2, §3, §4

Aspergillus strains = experiment: Aspergillus panel MIC, statement on the whole panel; format: cell-based; settings: Table 8, in words
Procedure: as §5

C. auris 8971 = experiment: Candida panel MIC, serial dilution in 96-well plates; format: cell-based, Candida auris; settings: Candidozyma auris, 8971; Table 4, extended panel; 24 hours, ≥50% inhibition; read-out: MIC C. auris 8971
How it was run: as §8

C. auris 8977 = experiment: as above; format: cell-based, Candida auris; settings: Candidozyma auris, 8977; Table 4, extended panel; 24 hours, ≥50% inhibition; read-out: MIC C. auris 8977
How it was run: as §8

C. auris 8984 = experiment: as above; format: cell-based, Candida auris; settings: Candidozyma auris, 8984; Table 4, extended panel; 24 hours, ≥50% inhibition; read-out: MIC C. auris 8984
How it was run: as §8

[8] = Candida albicans, Table 4, common panel, 24 hours, ≥50% inhibition
[9] = NCPF8018, Table 4, common panel, 24 hours, ≥50% inhibition, read-out: MIC C. glabrata NCPF8018
[10] = NCPF3876, Table 4, common panel, 24 hours, ≥50% inhibition, read-out: MIC C. krusei NCPF3876
[11] = NCPF3209, Table 4, common panel, 24 hours, ≥50% inhibition, read-out: MIC C. parapsilosis NCPF3209
[12] = NCPF8760, Table 4, common panel, 24 hours, ≥50% inhibition, read-out: MIC C. tropicalis NCPF8760

SMILES: N#Cc1ccc(-c2ccc(NC3CCN(CC(O)(Cn4cncn4)c4ccc(F)cc4F)CC3)cc2)cc1 (stereo not drawn) [Compound number 2, 4′-((1-(2-(2,4-difluorophenyl)-2-hydroxy-3-(1H-1,2,4-triazol-1-yl)propyl)piperidin-4-yl)amino)-[1,1′-biphenyl]-4-carbonitrile]
- Minimum inhibitory concentration Aspergillus carbonarius ATCC 8740 [1]: 0.25
- Minimum inhibitory concentration Aspergillus fulavus ATCC 204304 [2]: 0.5
- Minimum inhibitory concentration Aspergillus fumigatus ATCC 1028 [3]: 0.25
- Minimum inhibitory concentration Aspergillus fumigatus ATCC 10894 [4]: 0.25
- Minimum inhibitory concentration Aspergillus fumigatus ATCC 13073 [5]: ≤0.125
- Minimum inhibitory concentration Aspergillus fumigatus ATCC 16424 [6]: ≤0.125
- Minimum inhibitory concentration Aspergillus fumigatus ATCC 204305 [7]: ≤0.125

SMILES: N#Cc1ccc(-c2ccc(NC3CCN(CC(O)(Cn4cncn4)c4ccc(F)cc4F)CC3)cc2)cc1 (stereo not drawn) [Example 2, 4′-((1-(2-(2,4-difluorophenyl)-2-hydroxy-3-(1H-1,2,4-triazol-1-yl)propyl)piperidin-4-yl)amino)-[1,1′-biphenyl]-4-carbonitrile]
- MIC (C. albicans NCPF3281; [8]): ≤ 3.9 ng/mL
- MIC (C. albicans NCPF3281; Table 6, Candida albicans panel): ≤ 3.9 ng/mL
- MIC (C. glabrata NCPF8018; [9]): 125 ng/mL (≈ 0.243 µM)
- MIC (C. krusei NCPF3876; [10]): 3 to 125 ng/mL (≈ 0.00583 to 0.243 µM)
- MIC (C. parapsilosis NCPF3209; [11]): ≤ 3 ng/mL
- MIC (Candida auris TDG2211): 250 ng/mL (≈ 0.486 µM)
- MIC (Candida auris TDG2506): 3 to 150 ng/mL (≈ 0.00583 to 0.291 µM)
- MIC (C. auris TDG1912): 30 ng/mL (≈ 0.0583 µM)
- MIC (C. tropicalis NCPF8760; [12]): 3 to 250 ng/mL (≈ 0.00583 to 0.486 µM)
- MIC (Candida auris TDG1102; TDG1102, 24 h): 3 to 500 ng/mL (≈ 0.00583 to 0.972 µM)
- MIC (Candida auris TDG2512): ≤ 3 ng/mL
- MIC (C. albicans 3363): 7.81 to 125 ng/mL (≈ 0.0152 to 0.243 µM)
- MIC (C. albicans 3645): 3.91 ng/mL (≈ 0.0076 µM)
- MIC (C. albicans 3880): 7.81 ng/mL (≈ 0.0152 µM)
- MIC (C. albicans 3881): 15.6 ng/mL (≈ 0.0303 µM)
- MIC (C. albicans 3882): 31.3 ng/mL (≈ 0.0608 µM)
- MIC (C. albicans 3990): 15.6 ng/mL (≈ 0.0303 µM)
- MIC (C. albicans 8112): 1.95 to 7.81 ng/mL (≈ 0.00379 to 0.0152 µM)
- Activity against Candida auris including resistant strains (panel of Candida species): highly active
- Effectiveness against the Aspergillus strains tested compared to fluconazole (Aspergillus strains): highly effective

SMILES: Cc1ccc(-c2ccc(NC3CCN(CC(O)(Cn4cncn4)c4ccc(F)cc4F)CC3)cc2)cc1 (stereo not drawn) [Example 3, 2-(2,4-Difluorophenyl)-1-(4-((4′-methyl-[1,1′-biphenyl]-4-yl)amino)piperidin-1-yl)-3-(1H-1,2,4-triazol-1-yl)propan-2-ol]
- MIC (C. albicans NCPF3281; [8]): ≤ 0.98 ng/mL
- MIC (C. glabrata NCPF8018; NCPF8018, read-out: MIC C. Glabrata NCPF8018): 125 ng/mL (≈ 0.248 µM)
- MIC (C. glabrata NCPF8018; [9]): 125 ng/mL (≈ 0.248 µM)
- MIC (C. krusei NCPF3876; NCPF3876, read-out: MIC C. Krusei NCPF3876): 4 to 16 ng/mL (≈ 0.00794 to 0.0318 µM)
- MIC (C. krusei NCPF3876; [10]): 4 to 16 ng/mL (≈ 0.00794 to 0.0318 µM)
- MIC (C. parapsilosis NCPF3209; NCPF3209, read-out: MIC C. Parapsilosis NCPF3209): 4 ng/mL (≈ 0.00794 µM)
- MIC (C. parapsilosis NCPF3209; [11]): 4 ng/mL (≈ 0.00794 µM)
- MIC (Candida auris TDG2211): 6 ng/mL (≈ 0.0119 µM)
- MIC (Candida auris TDG2506): 6 ng/mL (≈ 0.0119 µM)
- MIC (C. auris TDG1912): 8 to 60 ng/mL (≈ 0.0159 to 0.119 µM)
- MIC (C. tropicalis NCPF8760; [12]): 15 ng/mL (≈ 0.0298 µM)
- MIC (C. tropicalis NCPF8760; NCPF8760, read-out: MIC C. Tropicalis NCPF8760): 15 ng/mL (≈ 0.0298 µM)
- MIC (Candida auris TDG1102; TDG1102, Table 4, extended panel, 24 hours, ≥50% inhibition): ≤ 3 ng/mL
- MIC (Candida auris TDG2512): ≤ 3 ng/mL
- MIC (C. auris 8971): 6 ng/mL (≈ 0.0119 µM)
- MIC (C. auris 8977): 6 ng/mL (≈ 0.0119 µM)
- MIC (C. auris 8984): 6 ng/mL (≈ 0.0119 µM)
- Activity against Candida auris including resistant strains (panel of Candida species): highly active

— patent publication US20240246920A1, “TRIAZOLE DERIVATIVES WITH ANTIFUNGAL ACTIVITY” (King's College London, priority 2020, published 2024)
